The values that follow come from US10918623B2, “Methods of treating influenza” (Biotron Limited, priority 2017, dated 2021).

The target of data set [1] is M2 viroporin of influenza A (Influenza A virus, UniProt P06821). To be noted: cited from earlier work.
Data set [2] relates to SHIV-1SCVpu (ion channel sequence of HIV-1 Vpu). Format: cell-based.
For data set [3], the system named is PR8 wild-type influenza A virus. Briefly: microbe, parasite or virus in culture. Format: cell-based. To be noted: PR8, MDCK.
The test system of data set [4] is MDCK cells. To be noted: dog.
Data set [5] concerns Influenza A (H3N2). Format: cell-based.
Data set [6] concerns Influenza A (H1N1). It counts as cell-based.
Data set [7] is described as follows: in vitro. To be noted: dog.
For data set [8], the system named is SHIV-1PND2. Format: cell-based.
The subject of data set [9] is influenza. To be noted: human, in vivo; cited from earlier work.

SMILES strings stand for the structures.

M2 viroporin of influenza A, sequence (P06821 whole entry, looked up): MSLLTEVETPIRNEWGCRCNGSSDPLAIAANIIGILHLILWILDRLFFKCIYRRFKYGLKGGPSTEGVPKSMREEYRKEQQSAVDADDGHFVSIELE

A word on the EC50: it is the midpoint of the concentration-response curve. Lower therefore signals an effect from little substance. For orientation: EC90 means the concentration needed for an effect of 90%. Low readings indicate greater potency, high ones weaker potency. For the compound `Cn1cc(-c2cccc3cc(C(=O)NC(=N)N)ccc23)cn1` [BIT225, N-carbamimidoyl-5-(1-methyl-1H-pyrazol-4-yl)-2-naphthamide], in data set [1], the “Activity against the M2 viroporin of influenza A” value is reported as “only limited activity”. Moreover, in [2], the “Virus released into the culture supernatant as measured by viral p27 protein” value is listed as “reduced virus released”. Besides, in data set [3], the 50% effective concentration (EC50) is approximately 10 µM and the EC90 is 12 µM. For the same compound, the “Toxic effects (no toxic effects up to)” value in [4] was more than 100 µM. For the same compound, in data set [5], the Comments entry is on record as “Active”. The Comments entry in data set [6] was “Active”. In data set [7], this compound had a CC50 of 32 µM. Also, in data set [8], the Virus replication entry is listed as “does not significantly reduce virus replication”.

On to `CCOC(=O)C1=C[C@@H](OC(CC)CC)[C@H](NC(C)=O)[C@@H](N)C1` [oseltamivir], for which the “Reduction of time to alleviation of symptoms of influenza” value in [9] is 16.8 h.
